According to US9233979B2, “Compounds that are ERK inhibitors” (Merck Sharp & Dohme Corp., priority 2012, dated 2016):

Molecular target: phosphorylated active hERK2 enzyme (Homo sapiens (Human), UniProt P28482)
Assay: Active Human ERK2 (hERK2) Activity Assay (IMAP-FP)
Assay type: biochemical
Settings: Table 6, 0.5 nM hERK2, 30 μM ATP, 10 point titration, read-out: AERK2 IC50
Summary of the method: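 IMAP detection beads in buffer with 24 mM NaCl stopped the reaction, and fluorescence polarization was read after 60 min binding.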

phosphorylated active hERK2 enzyme, sequence (P28482 whole entry): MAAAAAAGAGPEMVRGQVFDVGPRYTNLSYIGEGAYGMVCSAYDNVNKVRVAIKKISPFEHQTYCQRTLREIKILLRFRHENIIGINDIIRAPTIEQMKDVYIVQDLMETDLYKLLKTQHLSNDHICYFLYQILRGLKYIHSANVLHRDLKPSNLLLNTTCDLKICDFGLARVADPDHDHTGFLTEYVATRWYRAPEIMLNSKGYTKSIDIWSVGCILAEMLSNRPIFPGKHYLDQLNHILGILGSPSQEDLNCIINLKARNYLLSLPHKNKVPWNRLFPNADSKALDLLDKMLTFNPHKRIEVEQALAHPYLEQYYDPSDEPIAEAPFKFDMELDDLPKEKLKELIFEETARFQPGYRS

IC50	Compound
1.5 nM	COC(=O)Nc1n[nH]c2cc(NC(=O)N[C@H](C)c3ccc(Cl)c(F)c3)ncc12 [Example 306, methyl [6-({[(1R)-1-(4-chloro-3-fluorophenyl)ethyl]carbamoyl}amino)-1H-pyrazolo[4,3-c]pyridin-3-yl]-carbamate]
1.7 nM	COC(=O)Nc1n[nH]c2cc(NC(=O)N[C@H](C)c3ccc(Cl)c(O)c3)ncc12 [Example 307, methyl [6-({[(1R)-1-(4-chloro-3-hydroxyphenyl)-ethyl]carbamoyl}-amino)-1H-pyrazolo[4,3-c]-pyridin-3-yl]-carbamate]
134 nM	C[C@@H](NC(=O)Nc1cc2[nH]nc(NC(=O)N[C@H](C)c3ccc(Cl)nc3)c2cn1)c1ccc(Cl)nc1 [Example 312, N′,N″′-1H-pyrazolo[4,3-c]pyridine-3,6-diylbis{1-[(1R)-1-(6-chloropyridin-3-yl)ethyl]urea}]
5.6 nM	CCNC(=O)Nc1n[nH]c2cc(NC(=O)N[C@H](C)c3ccccc3)ncc12 [Example 313, (R)-1-(3-(3-ethylureido)-1H-pyrazolo[4,3-c]pyridin-6-yl)-3-(1-phenylethyl)urea]
10 nM	CCOC(=O)Nc1n[nH]c2cc(NC(=O)N[C@H](C)c3ccccc3)ncc12 [Example 315, (R)-ethyl(6-(3-(1-phenylethyl)ureido)-1H-pyrazolo[4,3-c]pyridin-3-yl)carbamate]
1 nM	C[C@@H](NC(=O)Nc1cc2[nH]nc(NC(=O)C3CC3)c2cn1)c1ccccc1 [Example 317, (R)—N-(6-(3-(1-phenylethyl)ureido)-1H-pyrazolo[4,3-c]pyridin-3-yl)cyclopropanecarboxamide]
2.2 nM	COCC(=O)Nc1n[nH]c2cc(NC(=O)N[C@H](C)c3ccccc3)ncc12 [Example 318, (R)-2-methoxy-N-(6-(3-(1-phenylethyl)ureido)-1H-pyrazolo[4,3-c]pyridin-3-yl)acetamide]
33 nM	CCNc1n[nH]c2cc(NC(=O)NC(CC)c3ccccn3)ncc12 (stereo not drawn) [Example 320, 1-(3-(ethylamino)-1H-pyrazolo[4,3-c]pyridin-6-yl)-3-(1-(pyridin-2-yl)propyl)urea]
4.1 nM	COC[C@H](NC(=O)Nc1ncc2c(NC(C)C)n[nH]c2c1F)c1ccccc1 [Example 323, 1-{7-fluoro-3-[(1-methylethyl)amino]-1H-pyrazolo[4,3-c]pyridin-6-yl}-3-[(1R)-2-methoxy-1-phenylethyl]urea]
1.5 nM	CC(C)Nc1n[nH]c2cc(NC(=O)N[C@H](C)c3ccccc3)ncc12 [Example 325, 1-{3-[(1-methyl-ethyl)amino]-1H-pyrazolo[4,3-c]-pyridin-6-yl}-3-[(1R)-1-phenylethyl]urea]
1 nM	C[C@@H](NC(=O)Nc1cc2[nH]nc(NC3CCOCC3)c2cn1)c1ccccc1 [Example 327, 1-[(1R)-1-phenylethyl]-3-[3-(tetrahydro-2H-pyran-4-ylamino)-1H-pyrazolo[4,3-c]pyridin-6-yl]urea]
0.9 nM	C[C@@H](NC(=O)Nc1cc2[nH]nc(NC3CC3)c2cn1)c1ccccc1 [Example 330, 1-[3-(cyclopropyl-amino)-1H-pyrazolo[4,3-c]pyridin-6-yl]-3-[(1R)-1-phenylethyl]urea]
74.7 nM	Cc1nc(NC(=O)N[C@H](C)c2ccccc2)cc2[nH]nc(N3CCC[C@H]3C(=O)O)c12 [Example 332, 1-[4-methyl-6-({[(1R)-1-phenyl-ethyl]carbamoyl}-amino)-1H-pyrazolo[4,3-c]-pyridin-3-yl]proline]
11.8 nM	CNc1n[nH]c2cc(NC(=O)N[C@H](C)c3ccccc3)nc(C)c12 [Example 336, 1-[4-methyl-3-(methylamino)-1H-pyrazolo[4,3-c]pyridin-6-yl]-3-[(1R)-1-phenylethyl]urea]
127 nM	CC(=O)Nc1n[nH]c2cc(NC(=O)N[C@H](C)c3ccccc3)nc(C)c12 [Example 337, (R)—N-(4-methyl-6-(3-(1-phenylethyl)ureido)-1H-pyrazolo[4,3-c]pyridin-3-yl)acetamide]
16.1 nM	COC(=O)Nc1n[nH]c2cc(NC(=O)N[C@H](C)c3ccccc3)nc(C)c12 [Example 338, methyl [4-methyl-6-({[(1R)-1-phenyl-ethyl]carbamoyl}-amino)-1H-pyrazolo[4,3-c]-pyridin-3-yl]-carbamate]

Second part, the compound before the results:

Compound	IC50
COC(=O)Nc1n[nH]c2cc(NC(=O)N[C@H](C)c3ccc(Cl)c(C)c3)ncc12 [Example 304, methyl [6-({[(1R)-1-(4-chloro-3-methyl-phenyl)ethyl}-carbamoyl}amino)-1H-pyrazolo[4,3-c]pyridin-3-yl]-carbamate]	3.4 nM
COC(=O)Nc1n[nH]c2cc(NC(=O)N[C@H](C)c3ccccc3F)ncc12 [Example 305, methyl [6-({[(1R)-1-(2-fluorophenyl)-ethyl]carbamoyl}-amino)-1H-pyrazolo[4,3-c]-pyridin-3-yl]-carbamate]	7.3 nM
C[C@@H](NC(=O)Nc1cc2[nH]nc(NC(=O)N[C@H](C)c3ccc(Cl)c(O)c3)c2cn1)c1ccc(Cl)c(O)c1 [Example 308, N′,N″′-1H-pyrazolo[4,3-c]-pyridine-3,6-diylbis{1-[(1R)-1-(4-chloro-3-hydroxyphenyl)-ethyl]urea}]	461 nM
COC(=O)Nc1n[nH]c2cc(NC(=O)N[C@H](C)c3ccc(Cl)c(C(F)(F)F)c3)ncc12 [Example 309, methyl {6-[({(1R)-1-[4-chloro-3-(trifluoromethyl)-phenyl]ethyl}-carbamoyl)amino]-1H-pyrazolo[4,3-c]pyridin-3-yl}-carbamate]	3.6 nM
C[C@@H](NC(=O)Nc1cc2[nH]nc(NC(=O)N[C@H](C)c3ccc(Cl)c(C(F)(F)F)c3)c2cn1)c1ccc(Cl)c(C(F)(F)F)c1 [Example 310, N′,N″′-1H-pyrazolo[4,3-c]-pyridine-3,6-diylbis(1-{(1R)-1-[4-chloro-3-(trifluoromethyl)-phenyl]ethyl}urea)]	2450 nM
COC(=O)Nc1n[nH]c2cc(NC(=O)N[C@H](C)c3ccc(Cl)nc3)ncc12 [Example 311, methyl [6-({[(1R)-1-(6-chloropyridin-3-yl)ethyl]-carbamoyl}amino)-1H-pyrazolo[4,3-c]pyridin-3-yl]-carbamate]	19.1 nM
COc1cc([C@@H](C)NC(=O)Nc2cc3[nH]nc(NC(=O)N[C@H](C)c4ccc(Cl)c(OC)c4)c3cn2)ccc1Cl [Example 314, 1,1′-(1H-pyrazolo[4,3-c]pyridine-3,6-diyl)bis(3-((R)-1-(4-chloro-3-methoxyphenyl)ethyl)urea)]	732 nM
C[C@@H](NC(=O)Nc1cc2[nH]nc(NCc3cccnc3)c2cn1)c1ccccc1 [Example 316, (R)-1-(1-phenylethyl)-3-(3-((pyridin-3-ylmethyl)amino)-1H-pyrazolo[4,3-c]pyridin-6-yl)urea]	0.7 nM
COC[C@@H](NC(=O)Nc1cc2[nH]nc(NC(=O)C(C)C)c2cn1)c1ccccc1 [Example 319, (S)-N-(6-(3-(2-methoxy-1-phenylethyl)ureido)-1H-pyrazolo[4,3-c]pyridin-3-yl)-isobutyramide]	0.4 nM
COC(=O)Nc1n[nH]c2cc(NC(=O)N[C@H](C)c3ccc(F)cc3)ncc12 [Example 321, (R)-methyl (6-(3-(1-(4-fluorophenyl)ethyl)ureido)-1H-pyrazolo[4,3-c]pyridin-3-yl)carbamate]	2.6 nM
COC[C@@H](NC(=O)Nc1cc2[nH]nc(NC3CCOCC3)c2cn1)c1ccccc1 [Example 328, 1-[(1S)-2-methoxy-1-phenylethyl]-3-[3-(tetrahydro-2H-pyran-4-ylamino)-1H-pyrazolo[4,3-c]pyridin-6-yl]urea]	0.8 nM
COC[C@@H](NC(=O)Nc1cc2[nH]nc(NC3CC3)c2cn1)c1ccccc1 [Example 329, 1-[3-(cyclopropyl-amino)-1H-pyrazolo[4,3-c]-pyridin-6-yl]-3-[(1S)-2-methoxy-1-phenylethyl]urea]	1 nM
CCNc1n[nH]c2cc(NC(=O)N[C@H](C)c3ccccc3)nc(C)c12 [Example 331, (R)-1-(3-(ethylamino)-4-methyl-1H-pyrazolo[4,3-c]pyridin-6-yl)-3-(1-phenylethyl)urea]	2.9 nM
Cc1nc(NC(=O)N[C@H](C)c2ccccc2)cc2[nH]nc(N)c12 [Example 333, (R)-1-(3-amino-4-methyl-1H-pyrazolo[4,3-c]pyridin-6-yl)-3-(1-phenylethyl)urea]	0.7 nM
CCNc1n[nH]c2cc(NC(=O)N[C@H](COC)c3ccccc3)nc(C)c12 [Example 334, 1-[3-(ethylamino)-4-methyl-1H-pyrazolo[4,3-c]-pyridin-6-yl]-3-[(1S)-2-methoxy-1-phenylethyl]urea]	2.9 nM
COC[C@@H](NC(=O)Nc1cc2[nH]nc(N)c2c(C)n1)c1ccccc1 [Example 335, 1-(3-amino-4-methyl-1H-pyrazolo[4,3-c]-pyridin-6-yl)-3-[(1S)-2-methoxy-1-phenylethyl]urea]	3 nM
COC[C@H](NC(=O)Nc1cc2[nH]nc(N3CCOCC3)c2cn1)c1ccc(F)cc1 [Example 339, (R)-1-(1-(4-fluorophenyl)-2-methoxyethyl)-3-(3-morpholino-1H-pyrazolo[4,3-c]-pyridin-6-yl)urea]	0.4 nM
CC(C)Nc1n[nH]c2cc(NC(=O)N[C@H](C)c3ccc(F)cc3)ncc12 [Example 340, (R)-1-(1-(4-fluorophenyl)ethyl)-3-(3-(isopropyl-amino)-1H-pyrazolo[4,3-c]-pyridin-6-yl)urea]	1.6 nM
C[C@@H](NC(=O)Nc1cc2[nH]nc(NCC(F)(F)F)c2cn1)c1ccccc1 [Example 341, 1-[(1R)-1-phenylethyl]-3-{3-[(2,2,2-trifluoro-ethyl)amino]-1H-pyrazolo[4,3-c]-pyridin-6-yl}urea]	2.4 nM
COC[C@@H](NC(=O)Nc1cc2[nH]nc(NCC(F)(F)F)c2cn1)c1ccccc1 [Example 342, 1-[(1S)-2-methoxy-1-phenylethyl]-3-{3-[(2,2,2-trifluoro-ethyl)amino]-1H-pyrazolo[4,3-c]-pyridin-6-yl}urea]	0.9 nM
